Key:
caspase 3 = target: T1, caspase 3 (Homo sapiens, UniProt P42574); experiment: Fluorimetric in vitro caspase inhibition assay (7-AMC), caspase 3; format: biochemical; parameters: purchased Biomol International, UK; details: for increase in potency as compared to known benzyl derivative 15: caspase 3, versus compound 15; for EC50: recombinant human caspase 3, 10 μM Ac-DEVD-AMC
T1 sequence (P42574 29-175 limits assumed): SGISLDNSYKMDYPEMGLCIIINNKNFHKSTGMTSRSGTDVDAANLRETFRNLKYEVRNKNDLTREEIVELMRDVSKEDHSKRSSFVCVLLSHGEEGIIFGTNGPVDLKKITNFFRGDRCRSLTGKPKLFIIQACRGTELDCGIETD
T1 sequence (P42574 176-277 limits assumed): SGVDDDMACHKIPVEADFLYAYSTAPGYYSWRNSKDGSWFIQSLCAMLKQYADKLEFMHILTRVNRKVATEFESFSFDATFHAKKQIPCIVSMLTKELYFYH
Description: Recombinant human caspases-1, -3, -6, -7, and -8 and their peptide-specific substrates were purchased from Biomol International, UK Inhibition of the recombinant caspases by non-radioactive isatins was assessed using a fluorometric assay that measures the accumulation of a fluorogenic product, 7-amino-4-methylcoumarin (7-AMC). All assays were performed in 96-well plates at a volume of 200 μl per well. The assays were performed at 37° C. in an appropriate reaction buffer as described below for each caspase. For caspase 1, the buffer comprised of 0.1% CHAPS, 100 mM NaCl, 5 mM 2-mercaptoethanol, 100 mM HEPES (pH 7.4), 2 mM EDTA, 10% sucrose, and 10 μM of the peptide substrate Ac-YVAD-AMC. For caspase 3: 20 mM HEPES (pH 7.4), 10% sucrose, 100 mM NaCl, 0.1% CHAPS, 2 m, mM EDTA, and 10 μM Ac-DEVD-AMC. For caspase 6: 20 mM HEPES (pH 7.4), 10% sucrose, 100 mM NaCl, 0.1% CHAPS, 2 mM EDTA, and 10 μM Ac-VEID-AMC. For caspase 7: 20 mM HEPES (pH 7.4), 10% sucrose, 5 mM 2-mercaptoethanol, 100 mM NaCl, 0.1% CHAPS, 2 mM EDTA, 10 μM Ac-DEVD-AMC. For caspase 8: 20 mM HEPES (pH 7.4), 10% sucrose, 100 mM NaCl, 0.1% CHAPS, 2 mM EDTA, and 10 μM Ac-IETD-AMC. The Buffers contained non-radioactive isatins in DMSO at a final concentration of 500, 50, 5 μM; 500, 50, 5 nM; 500, 50, 5 pM; the final concentration of DMSO in all wells was 5% of the total volume. Recombinant caspases were used at 0.5 units per assay (˜500 pmol substrate converted per h). All reagents except the peptide substrate were pre-incubated for 10 min. The peptide substrate (final concentration 10 μM) was then added and the plate was incubated for a further 30 min; 30 min was selected after initial linearity study where reaction was assessed after 10, 30, 60 or 90 min. The 30 min time point was selected. Respective control wells contained all reaction components without enzyme. The amount of 7-AMC produced was measured on a fluorescence microplate reader (Victor2; Perkin-Elmer Life sciences) at excitation and emission wavelengths of 355 nm and 460 nm, respectively. The concentration of isatin that inhibits the caspase activity by 50% (EC50) was estimated by non-linear regression analysis using GraphPad Prism (Version 4.0 for Windows, GraphPad Software, San Diego Calif. USA). All the isatins were analyzed in duplicate; the assays were repeated once.
The data are the average for two runs, each of which was duplicated, at nine concentrations ranging from 5 pM to 500 μM; the drug concentration required to inhibit each enzyme by 50% (EC50) was obtained from nonlinear regression analysis of the inhibition profiles.

[1] = In vitro mouse liver S9 metabolism studies; format: in vitro ADME; details: 60 min incubation, 37° C., HPLC
Description: Liver S9 metabolism studies were performed as described in Aboagye et al^19. Mouse livers were rapidly excised and kept at 4° C. throughout the experiment. Tissues were weighed and homogenized in an equivalent volume of 50 mM Tris-150 mM KCl-HCl buffer (pH 7.4) using an Ultra-Thurrax homogenizer (IKA, Staufen, Germany). To obtain the S9 fraction, the homogenate was centrifuged (10,000×g) for 30 min to remove nuclei, mitochondria and cell debris. Protein concentration of the S9 fraction was determined by a commercial BCA protein assay kit (Perbio Science, Cheshire, UK). S9 fractions were stored at −80° C. for up to 6 weeks. […]
Immediately prior to extraction the samples were thawed and placed on ice. For extraction, ice cold acetonitrile (1.5 mL) was added to plasma (0.2 mL); S9 incubation samples (3 mL) containing acetonitrile were also analysed. […] The samples (1 mL) were then analyzed by radio-HPLC on an Agilent 1100 series HPLC system (Agilent Technologies, Stockport, UK) equipped with a γ-RAM Model 3 gamma-detector and the Laura software (IN/US Systems inc., Florida, USA).
The stationary phase comprised of a Waters μBondapak C18 reverse-phase column (300×7.8 mm). For analysis of [^125I]14, plasma and liver samples were processed as above and analyzed by using a mobile phase comprising of water (0.1% TFA)/propan-1-ol (0.1% TFA) (35:65) running in isocratic mode at a flowrate of 2 mL/min. […]

Compound	EC50 (caspase 3)	other results
O=C1C(=O)N(Cc2cn(CCF)nn2)c2ccc(S(=O)(=O)N3CCC[C@H]3COc3ccccc3)cc21 [Compound 10, (S)-1-((1-(2-Fluoroethyl)-1H-[1,2,3]-triazol-4-yl)methyl)-5-(2-phenoxymethyl-pyrrolidine-1-sulfonyl)isatin]	16.7 nM	increase in potency as compared to known benzyl derivative 15 (caspase 3): 4 fold
O=C1C(=O)N(Cc2ccc(F)cc2)c2ccc(S(=O)(=O)N3CCC[C@H]3COc3cccc(F)c3)cc21 [Compound 1, (S)-1-(4-Fluorobenzyl)-5-(2-(3-fluorophenoxymethyl)-pyrrolidine-1-sulfonyl)isatin]	17 nM	increase of affinity for caspase 3 as compared with compound 14 (caspase 3; versus known compound 14): two- to three-fold
O=C1C(=O)N(Cc2ccc(F)cc2)c2ccc(S(=O)(=O)N3CCC[C@H]3COc3ccc(F)cc3)cc21 [Compound 22, (S)-1-(4-Fluorobenzyl)-5-(2-(4-fluorophenoxymethyl)-pyrrolidine-1-sulfonyl)isatin]	26.1 nM	
O=C1C(=O)N(Cc2ccc(F)cc2)c2ccc(S(=O)(=O)N3CCC[C@H]3COc3ccccc3)cc21 [Compound 15, (S)-1-(4-fluorobenzyl)-5-(2-phenoxymethyl-pyrrolidine-1-sulfonyl)isatin, reference compound]	50.5 nM	degradation in mouse liver S9 fraction [1]: near complete degradation
O=C1C(=O)N(Cc2ccc(F)cc2)c2ccc(S(=O)(=O)N3CCC[C@H]3COc3ccncn3)cc21 [Compound 5, (S)-1-(4-Fluorobenzyl)-5-(2-(pyrimidin-4-yloxymethyl)-pyrrolidine-1-sulfonyl)isatin]	5.5 nM	
O=C1C(=O)N(Cc2ccccc2)c2ccc(S(=O)(=O)N3CCC[C@H]3COc3ccccc3)cc21 [Compound 13, (S)-1-benzyl-5-(2-phenoxymethyl-pyrrolidine-1-sulfonyl)isatin, reference compound]	41.8 nM	
O=C1C(=O)N(Cc2ccc(I)cc2)c2ccc(S(=O)(=O)N3CCC[C@H]3COc3ccccc3)cc21 [Compound 14, (S)-1-(4-iodobenzyl)-5-(2-phenoxymethyl-pyrrolidine-1-sulfonyl)isatin, reference compound]		degradation in mouse liver S9 fraction [1]: near complete degradation
O=C1C(=O)N(Cc2ccc(F)cc2)c2ccc(S(=O)(=O)N3CCC[C@H]3COc3ccc(F)cc3F)cc21 [Compound 2, (S)-1-(4-Fluorobenzyl)-5-(2-(2,4-difluorophenoxymethyl)-pyrrolidine-1-sulfonyl)isatin]	12.4 nM	
O=C1C(=O)N(Cc2cn(CCF)nn2)c2ccc(S(=O)(=O)N3CCC[C@H]3COc3ccc(F)cc3F)cc21 [Compound 11, (S)-1-((1-(2-Fluoroethyl)-1H-[1,2,3]-triazol-4-yl)methyl)-5-(2(2,4-difluorophenoxymethyl)-pyrrolidine-1-sulfonyl)isatin]	0.5 nM	
O=C1C(=O)N(Cc2ccc(F)cc2)c2ccc(S(=O)(=O)N3CCC[C@H]3COC3CCOCC3)cc21 [Compound 4, (S)-1-(4-Fluorobenzyl)-5-(2-(tetrahydro-2H-pyran-4-yloxymethyl)-pyrrolidine-1-sulfonyl)isatin]	10.7 nM	increase in potency as compared to known benzyl derivative 15 (caspase 3): five-fold
C#CCN1C(=O)C(=O)c2cc(S(=O)(=O)N3CCC[C@H]3COc3ccc(F)cc3F)ccc21 [Compound 25, (S)-1-(2-Propynyl)-5-(2-(2,4-difluorophenoxymethyl)-pyrrolidine-1-sulfonyl)isatin]	50.1 nM	
O=C1C(=O)N(Cc2ccc(F)cc2)c2ccc(S(=O)(=O)N3CCCC3)cc21 [Compound 16, 1-(4-Fluorobenzyl)-5-(pyrrolidine-1-sulfonyl)isatin, reference compound]	200 nM	

Source: US8961930B2, “Isatin derivatives for use as in vivo imaging agents” (Imperial Innovations Limited, priority 2008, dated 2015)
